Measured values from patent EP4786454A1, “HETEROARYL DERIVATIVE AND USE THEREOF” (priority 2023, dated 2025).

Experiments:
[1] = Stability in liver microsomes (dog); assay type: in vitro ADME, beagle dogs; details: d (beagle dog liver microsomes), 0.5 mg/mL, read-out: MMS Clint
Method: The purpose of this study was to evaluate the phase I metabolic stability of the assay sample in liver microsomes from CD-1 mice, Sprague-Dawley (SD) rats, beagle dogs, cynomolgus monkeys, and human.
The animal and human liver microsomes used in this assay system were purchased from Xenotech, Corning, or other qualified suppliers.
Preparation of buffer: 73.21 g of potassium phosphate dibasic trihydrate and 10.78 g of potassium dihydrogen phosphate were dissolved in 4000 mL of ultrapure water. The pH of the solution was adjusted to the range of 7.40 ± 0.10 using 10.0% phosphoric acid or 1.00 M potassium hydroxide. Its final concentration was 100 mM.
Preparation of working solutions: An assay sample powder was prepared into a 10.0 mM stock solution with DMSO, and then further diluted with a suitable organic solvent. The control compounds testosterone, diclofenac, and propafenone were prepared into 10.0 mM stock solutions using DMSO, and then further diluted with a suitable organic solvent.
Preparation of liver microsome solution: Microsomes of various species were diluted with 100 mM potassium phosphate buffer to a working solution of 0.56 mg/mL. The final concentration of microsomes in the reaction system was 0.500 mg/mL. Detailed preparation procedures were described in the experimental records.
Preparation of reduced nicotinamide adenine dinucleotide phosphate (NADPH) solution: An appropriate amount of reduced nicotinamide adenine dinucleotide phosphate was dissolved in magnesium chloride solution, and the mixture was shaken to mix well. The final concentrations in the reaction system were 1.00 mM NADPH and 1.00 mM magnesium chloride, respectively. Detailed preparation procedures were described in the experimental records.
Preparation of stop solution: The stop solution was prepared using acetonitrile containing internal standards (tolbutamide and labetalol). The prepared stop solution was stored at 2.0 to 8.0 °C in a refrigerator. Detailed preparation procedures were described in the experimental records. […]

[2] = system: male CD-1 mice; assay: Maximal electroshock-induced epilepsy model, behavioral pharmacodynamics; assay type: in vivo; details: 5 mg/kg orally, one hour before electrical stimulation
Excerpt: This study used behavioral tests in male CD-1 mice to investigate the effects of test compounds on acute epileptic seizures behavior induced by maximal electroshock.
Male CD-1 mice (25 to 35g) were used as the experimental animals and fed with standard feed (Beijing Vital River Laboratory Animal Technology Co., Ltd.).
After arriving at the animal facility, the experimental animals needed to acclimatize for at least one week. The mice were observed daily for vital signs, and randomly divided into groups according to their body weights one day before the drug administration. One hour before the electrical stimulation, different dosages of the test compound were orally administered to each group. On the day of the assay, the male CD-1 mice in each group were anesthetized locally at the cornea with 2% lidocaine. Then, silver bipolar electrodes were used to electrically stimulate the cornea of the mice with 18 mA, 60 Hz, a pulse width of 0.6 ms, and a stimulation time of 1 s to induce seizures. Subsequently, the latency of seizures and the duration of limb rigidity in mice after the electrical stimulation were observed, and the protection rate from seizures for each group was statistically analyzed.

SMILES | CLint scaled at 1 µM [1] [mL/min/kg] | Protection rate from seizures [2] [%]
CC(C)(C)CC(=O)Nc1nc2c(F)cc(C#N)cn2c1C1=CCCC1 [Compound 3] | < 14 | 66.7
CC(C)(C)CC(=O)Nc1nc2c(F)cc(C#N)cn2c1-c1ccc(OC(F)(F)F)cc1 [Compound 1] | 16 | 66.7
CC(C)(C)CC(=O)Nc1nc2c(F)cc(C#N)cn2c1C12CC(C1)C2 [Compound 5] | < 13.8 | –
